Data reported in patent publication US11186576B2, “Pyrazolo[1,5-A][1,3,5]triazine and pyrazolo[1,5-A]pyrimidine derivatives as CDK inhibitors” (Aurigene Discovery Technologies Limited, priority 2015, dated 2021).

Molecular target: CDK7/CycH/MNAT1 (Homo sapiens (Human), UniProt P50613)
Assay: Biochemical assay for CDK7 (TR-FRET kinase assay)
Conditions: 60 min pre-incubation, 1 mM ATP; for inhibition at 10 µM / % inhibition @ 10 μM: 10 μM compound; for inhibition at 10 µM: read-out: % inhibition @ 10 μM; for IC50: read-out: IC50
Procedure: The ability of compounds to inhibit CDK7 kinase activity was tested in a TR-FRET assay using 5 nM of CDK7/CycH/MNAT1 obtained from Invitrogen, USA. Test compounds were pre-incubated with the kinase at room temperature for 60 min. After incubation, substrate mix [100 nM Ultra-light MBP (Perkin Elmer, USA) and 1 mM ATP (Sigma)] was added. The above reaction was stopped by the addition of 40 mM EDTA after 60 minutes of kinase reaction. 1 nM Eu-labelled antiphospho-MBP antibody [Perkin Elmer, USA] was added, mixed well and the fluorescence emission at 615 nm and 665 nm [excitation at 340 nm] was measured. The final DMSO concentration in the assay was 1%. For IC50 determination, appropriate concentrations were made by ⅓^rd serial dilutions of 10 mM DMSO stock solution of test compound. All the fluorescence measurements were made in a Victor 3 Multilabel Counter [Perkin Elmer, USA]. The IC50 was determined by fitting the dose response data to sigmoidal curve fitting equation using GraphPad Prism software V5. To identify compounds that inhibit CDK7 irreversibly, time depended inhibition studies were carried by pre-incubating compound with the enzyme at three time points (20, 60 and 180 min) and carrying out assay as described above.

Sequence of CDK7/CycH/MNAT1 (P50613 whole entry): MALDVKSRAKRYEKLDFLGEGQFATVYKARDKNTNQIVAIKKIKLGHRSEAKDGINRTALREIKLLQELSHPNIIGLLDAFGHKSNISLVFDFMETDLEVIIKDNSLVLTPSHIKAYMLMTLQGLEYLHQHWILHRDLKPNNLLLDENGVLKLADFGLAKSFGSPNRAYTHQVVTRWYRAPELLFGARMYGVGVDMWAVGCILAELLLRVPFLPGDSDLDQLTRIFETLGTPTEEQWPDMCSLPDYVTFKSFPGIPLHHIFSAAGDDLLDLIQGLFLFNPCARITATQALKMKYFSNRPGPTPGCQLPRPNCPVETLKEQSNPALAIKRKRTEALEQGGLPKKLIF
Sequence of CDK7/CycH/MNAT1 (P51946 whole entry partner): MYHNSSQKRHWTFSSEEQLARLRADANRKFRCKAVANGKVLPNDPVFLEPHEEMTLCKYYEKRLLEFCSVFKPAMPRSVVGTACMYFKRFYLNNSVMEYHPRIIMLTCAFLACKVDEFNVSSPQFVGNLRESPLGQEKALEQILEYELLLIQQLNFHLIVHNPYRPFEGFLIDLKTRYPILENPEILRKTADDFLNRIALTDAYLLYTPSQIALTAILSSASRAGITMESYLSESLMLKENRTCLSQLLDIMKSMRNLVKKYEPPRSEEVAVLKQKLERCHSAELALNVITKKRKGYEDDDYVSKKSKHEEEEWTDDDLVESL
Sequence of CDK7/CycH/MNAT1 (P51948 whole entry partner): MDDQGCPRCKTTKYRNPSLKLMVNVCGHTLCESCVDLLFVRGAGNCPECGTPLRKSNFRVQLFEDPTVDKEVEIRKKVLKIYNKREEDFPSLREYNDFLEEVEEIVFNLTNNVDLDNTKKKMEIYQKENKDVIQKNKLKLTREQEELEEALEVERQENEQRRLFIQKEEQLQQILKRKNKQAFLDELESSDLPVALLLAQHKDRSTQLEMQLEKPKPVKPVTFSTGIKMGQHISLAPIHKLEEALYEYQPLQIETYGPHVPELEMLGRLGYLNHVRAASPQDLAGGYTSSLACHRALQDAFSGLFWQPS

SMILES | inhibition at 10 µM [%] | IC50 [nM] | % inhibition @ 10 μM [%]
C=CC(=O)N[C@H]1CC[C@@H](C(=O)Nc2cccc(CNc3nc(NC4CCCC(O)C4)nc4c(C(C)C)cnn34)c2)CC1 (single isomer, unassigned) [Compound 10, 4-acrylamido-N-(3-(((2-((3-hydroxycyclohexyl)amino)-8-isopropylpyrazolo[1,5-a][1,3,5]triazin-4-yl)amino)methyl)phenyl)cyclohexane-1-carboxamide] | 89 | 300 to 1000 | 
C=CC(=O)N[C@H]1CC[C@@H](C(=O)Nc2cccc(CNc3nc(NC4CCCC(O)C4)nc4c(C(C)C)cnn34)c2)CC1 (single isomer, unassigned) [Compound 11, 4-acrylamido-N-(3-(((2-((3-hydroxycyclohexyl)amino)-8-isopropylpyrazolo[1,5-a][1,3,5]triazin-4-yl)amino)methyl)phenyl)cyclohexane-1-carboxamide] |  | 300 to 1000 | 89
C=CC(=O)N1CCC(C(=O)Nc2cccc(CNc3nc(NC4CCCC(O)C4)nc4c(C(C)C)cnn34)c2)C1 (single isomer, unassigned) [Compound 12, 1-acryloyl-N-(3-(((2-((3-hydroxycyclohexyl)amino)-8-isopropylpyrazolo[1,5-a][1,3,5]triazin-4-yl)amino)methyl)phenyl)pyrrolidine-3-carboxamide] | 92 | 300 to 1000 | 
C=CC(=O)N[C@H]1CC[C@@H](C(=O)Nc2cccc(CNc3nc(OC4CCOCC4F)nc4c(C(C)C)cnn34)c2)CC1 (single isomer, unassigned) [Compound 98, 4-acrylamido-N-(3-(((2-((3-fluorotetrahydro-2H-pyran-4-yl)oxy)-8-isopropylpyrazolo[1,5-a][1,3,5]triazin-4-yl)amino)methyl)phenyl)cyclohexane-1-carboxamide] | 88 | 300 to 1000 | 
C=CC(=O)N[C@H]1CC[C@@H](C(=O)Nc2cccc(CNc3nc(OC4CCOCC4F)nc4c(C(C)C)cnn34)c2)CC1 (single isomer, unassigned) [Compound 99, 4-acrylamido-N-(3-(((2-((3-fluorotetrahydro-2H-pyran-4-yl)oxy)-8-isopropylpyrazolo[1,5-a][1,3,5]triazin-4-yl)amino)methyl)phenyl)cyclohexane-1-carboxamide] |  | > 1000 | 82
C=CC(=O)N[C@H]1CC[C@@H](C(=O)Nc2cccc(CNc3nc(NC4CCOCC4)nc4c(C(C)C)cnn34)c2)CC1 [Compound 7, (1,4-cis)-4-acrylamido-N-(3-(((8-isopropyl-2-((tetrahydro-2H-pyran-4-yl)amino)pyrazolo[1,5-a][1,3,5]triazin-4-yl)amino)methyl)phenyl)cyclohexane-1-carboxamide] | 91 | > 1000 | 
C=CC(=O)N[C@H]1CC[C@@H](C(=O)Nc2cccc(CNc3nc(N[C@H]4CC[C@H](O)CC4)nc4c(C(C)C)cnn34)c2)CC1 [Compound 9, (1,4-cis)-4-acrylamido-N-(3-(((2-(((1r,4r)-4-hydroxycyclohexyl)amino)-8-isopropylpyrazolo[1,5-a][1,3,5]triazin-4-yl)amino)methyl)phenyl)cyclohexane-1-carboxamide] | 85 | > 1000 | 
CC(C)=CC(=O)N1CCC1C(=O)Nc1cccc(CNc2nc(NC3CCOCC3)nc3c(C(C)C)cnn23)c1 (stereo not shown) [Compound 17, N-(3-(((8-isopropyl-2-((tetrahydro-2H-pyran-4-yl)amino)pyrazolo[1,5-a][1,3,5]triazin-4-yl)amino)methyl)phenyl)-1-(3-methylbut-2-enoyl)azetidine-2-carboxamide] | 84 | > 1000 | 
C=CC(=O)N1CCOCC1C(=O)Nc1ccc(CC)c(CNc2nc(NC3CCOCC3)nc3c(C(C)C)cnn23)c1 (stereo not shown) [Compound 26, 4-acryloyl-N-(4-ethyl-3-(((8-isopropyl-2-((tetrahydro-2H-pyran-4-yl)amino)pyrazolo[1,5-a][1,3,5]triazin-4-yl)amino)methyl)phenyl)morpholine-3-carboxamide] | 95 | 300 to 1000 | 
C=CC(=O)N1CCC1C(=O)Nc1cccc(CNc2nc(NC3CCOCC3)nc3c(C(C)C)cnn23)c1F (stereo not shown) [Compound 30, 1-acryloyl-N-(2-fluoro-3-(((8-isopropyl-2-((tetrahydro-2H-pyran-4-yl)amino)pyrazolo[1,5-a][1,3,5]triazin-4-yl)amino)methyl)phenyl)azetidine-2-carboxamide] | 98 | < 300 | 
C=CC(=O)N1CCC1C(=O)Nc1cc(F)cc(CNc2nc(NC3CCOCC3)nc3c(C(C)C)cnn23)c1 (stereo not shown) [Compound 31, 1-acryloyl-N-(3-fluoro-5-(((8-isopropyl-2-((tetrahydro-2H-pyran-4-yl)amino)pyrazolo[1,5-a][1,3,5]triazin-4-yl)amino)methyl)phenyl)azetidine-2-carboxamide] | 100 | < 300 | 
C=CC(=O)N1CCC(C(=O)Nc2cc(F)cc(CNc3nc(NC4CCOCC4)nc4c(C(C)C)cnn34)c2)C1 (stereo not shown) [Compound 33, 1-acryloyl-N-(3-fluoro-5-(((8-isopropyl-2-((tetrahydro-2H-pyran-4-yl)amino)pyrazolo[1,5-a][1,3,5]triazin-4-yl)amino)methyl)phenyl)pyrrolidine-3-carboxamide] | 86 | 300 to 1000 | 
C=CC(=O)N1CCCCC1C(=O)Nc1ccc(C)c(CNc2nc(NC3CCOCC3)nc3c(C(C)C)cnn23)c1 (stereo not shown) [Compound 34, 1-acryloyl-N-(3-(((8-isopropyl-2-((tetrahydro-2H-pyran-4-yl)amino)pyrazolo[1,5-a][1,3,5]triazin-4-yl)amino)methyl)-4-methylphenyl)piperidine-2-carboxamide] | 73 | > 1000 | 
C=CC(=O)N1CCCCC1C(=O)Nc1cccc(CNc2nc(NC3CCOCC3)nc3c(C(C)C)cnn23)c1F (stereo not shown) [Compound 35, 1-acryloyl-N-(2-fluoro-3-(((8-isopropyl-2-((tetrahydro-2H-pyran-4-yl)amino)pyrazolo[1,5-a][1,3,5]triazin-4-yl)amino)methyl)phenyl)piperidine-2-carboxamide] | 99 | < 300 | 

Second part, the compound after the results:

inhibition at 10 µM [%] | IC50 [nM] | % inhibition @ 10 μM [%] | SMILES
 | < 300 |  | C=CC(=O)N1CCCCC1C(=O)Nc1cccc(CNc2nc(N[C@H]3CCCOC3)nc3c(C(C)C)cnn23)c1 (stereo partly drawn) [Compound 16, 1-acryloyl-N-(3-(((8-isopropyl-2-(((S)-tetrahydro-2H-pyran-3-yl)amino)pyrazolo[1,5-a][1,3,5]triazin-4-yl)amino)methyl)phenyl)piperidine-2-carboxamide]
100 | < 300 |  | C=CC(=O)N1CC[C@@H]1C(=O)Nc1cccc(CNc2nc(NC3CCOCC3)nc3c(C(C)C)cnn23)c1 [Compound 19, (R)-1-acryloyl-N-(3-(((8-isopropyl-2-((tetrahydro-2H-pyran-4-yl)amino)pyrazolo[1,5-a][1,3,5]triazin-4-yl)amino)methyl)phenyl)azetidine-2-carboxamide]
98 | < 300 |  | C=CC(=O)NC1CCCC(C(=O)Nc2cccc(CNc3nc(NC4CCOCC4)nc4c(C(C)C)cnn34)c2)C1 (stereo not shown) [Compound 22, 3-acrylamido-N-(3-(((8-isopropyl-2-((tetrahydro-2H-pyran-4-yl)amino)pyrazolo[1,5-a][1,3,5]triazin-4-yl)amino)methyl)phenyl)cyclohexane-1-carboxamide]
98 | < 300 |  | C=CC(=O)N1CCOC(C(=O)Nc2cccc(CNc3nc(NC4CCOCC4)nc4c(C(C)C)cnn34)c2)C1 (stereo not shown) [Compound 23, 4-acryloyl-N-(3-(((8-isopropyl-2-((tetrahydro-2H-pyran-4-yl)amino)pyrazolo[1,5-a][1,3,5]triazin-4-yl)amino)methyl)phenyl)morpholine-2-carboxamide]
99 | < 300 |  | C#CC(=O)N1CCOCC1C(=O)Nc1cccc(CNc2nc(NC3CCOCC3)nc3c(C(C)C)cnn23)c1 (stereo not shown) [Compound 25, N-(3-(((8-isopropyl-2-((tetrahydro-2H-pyran-4-yl)amino)pyrazolo[1,5-a][1,3,5]triazin-4-yl)amino)methyl)phenyl)-4-propioloylmorpholine-3-carboxamide]
100 | < 300 |  | C=CC(=O)N1CCC1C(=O)Nc1ccc(C)c(CNc2nc(NC3CCOCC3)nc3c(C(C)C)cnn23)c1 (stereo not shown) [Compound 27, 1-acryloyl-N-(3-(((8-isopropyl-2-((tetrahydro-2H-pyran-4-yl)amino)pyrazolo[1,5-a][1,3,5]triazin-4-yl)amino)methyl)-4-methylphenyl)azetidine-2-carboxamide]
99 | < 300 |  | C=CC(=O)N1CCC1C(=O)Nc1cc(CNc2nc(NC3CCOCC3)nc3c(C(C)C)cnn23)ccc1C (stereo not shown) [Compound 28, 1-acryloyl-N-(5-(((8-isopropyl-2-((tetrahydro-2H-pyran-4-yl)amino)pyrazolo[1,5-a][1,3,5]triazin-4-yl)amino)methyl)-2-methylphenyl)azetidine-2-carboxamide]
98 | < 300 |  | C=CC(=O)N1CCC1C(=O)Nc1ccc(F)c(CNc2nc(NC3CCOCC3)nc3c(C(C)C)cnn23)c1 (stereo not shown) [Compound 29, 1-acryloyl-N-(4-fluoro-3-(((8-isopropyl-2-((tetrahydro-2H-pyran-4-yl)amino)pyrazolo[1,5-a][1,3,5]triazin-4-yl)amino)methyl)phenyl)azetidine-2-carboxamide]
